Reference: patent publication US20080064034A1, “Multi-Cellular Test Systems” (FRAUNHOFER-GESELLSCHAFT ZUR FÖRDERUNG DER ANGEWAND, priority 2004, published 2008)

Test system: organoid bodies
Test: Western blot of the liver protein α-fetoprotein in homogenates of organoid bodies incubated with HGF
Format: cell-based
Details: 40 ng/ml HGF
Method: In this example organoid bodies were exposed for a time period of 1 to 2 days to different micromolar concentrations of puromycin, an active substance that inhibits translation. Then, the size of the treated organoid bodies was compared with those of an untreated control (see comparative micrograph in FIG. 5A). In a second detection method the organoids were taken up in 10 ml lysis buffer containing 7.5 ml PBS, 2.5 ml NP-40 and 1 mM PEFA block, stored overnight in a refrigerator at 4° C. and then homogenized in minihomogenizers for Eppendorf tubes. The homogenate was centrifuged, the supernatant removed and resolved electrophoretically according to standard methods and the gel subjected to a Western immunoblot. […] The first four bands are produced by the different active amounts of puromycin, the last two show the amount of vigilin in the untreated organoids; the same amount of total protein was always applied per track.
The organoid bodies were incubated with 40 ng/ml HGF (hepatocyte growth factor) or without HFG for 7, 11 14 and 17 days. Then, the organoid bodies were homogenized as described in example 7 and subjected to a Western blot assay. The production of the liver protein α-fetoprotein was examined (FIG. 7).

HGF: hepatocyte growth factor, a differentiation factor for increased formation of cardiac and liver cells
production of the liver protein α-fetoprotein (after 7 and 11 days of incubation): distinct synthesis of the fetoprotein can be observed
production of the liver protein α-fetoprotein (longer exposure time (14 and 17 days)): tends to inhibit the production again
